# Source: publication PMC6010013, “Synthesis, physiochemical property and antimicrobial activity of novel quaternary ammonium salts” (Journal of Enzyme Inhibition and Medicinal Chemistry, 2017)
# Tests used:
# Cytospora mandshurica [1] = assay: MBC, agar plating of dilutions without growth; assay type: cell-based; settings: Cytospora, 99.9% bactericidal, read-out: Minimal bactericidal concentration (MBC)
# Text: (§1) In this paper, antimicrobial activities of 24 QASs were detected by quantitative tests. […] Benzalkonium chloride (BZK) and chlorhexidine acetate (CA) was selected as positive controls. Representative compound POT-C12QAS (2) which synthesised and evaluated in previous work was also taken as a reference compound in MIC, MBC and cytotoxicity tests. […]
# (§2) agriculture were used as target pathogens in this study, including three strains of Gram-positive bacteria (S. Aureus, α-H-tococcus, β-H-tococcus), three strains of Gram-negative bacteria (E. coli, P. aeruginosa, Proteus vulgaris) and four strains of fungi (Canidia albicans, Cytospora mandshurica, Physalospora piricola, Aspergillus niger). The antimicrobial tests were assayed, according to standard CLSI methods for antimicrobial dilution susceptibility tests to measure the minimum inhibitory concentration (MIC) and minimum bactericidal concentration (MBC)2.
# (§3) A broth tube dilution method was followed to determine the MIC values for all the screened compounds against the micro-organisms, and for comparison benzalkonium chloride (BZK) and chlorhexidine acetate (CA) was used as a reference. For sample preparation, each of the test compounds and reference were dissolved in DMSO or sterile water at a concentration of 1600 μg/mL, and further dilutions of the compounds and reference in culture medium MHB (Muller-Hinton Broth) were prepared at the required quantities of 400, 200, 100 etc., down to 0.39 μg/mL. Bacterial strains and fungal strains were maintained on MHA (Muller-Hinton Agar) medium at 37℃ or 28 ℃ for 12 h or 72h, respectively. The microbial inocula were prepared by suspension in 10 mL of culture medium for colonies from culture on MHA. The cell density of each inoculum was adjusted in culture medium of a 0.5 McFarland standard (1-2×10^8 CFU/mL). The final amount applied was 10^5 CFU/mL for bacteria and fungi. The microbial inocula were added to the twofold diluted samples. One growth control tube was prepared […] the addition of the compound and one blank tube was prepared without the addition of the microorganism. MIC values were read after incubation at 37℃ or 28 ℃ for bacterial and fungal strains, respectively. After 12 h or 72h, the last tube with no growth of micro-organisms was recorded to represent the MIC value expressed in μg/ml. All experiments were carried out three times. […]
# (§4) was placed on agar plates in triplicate, and incubated at 37℃ or 28 ℃ for 12 h or 72h. The number of colonies on each plate was read, and the MBC was determined as the lowest concentration that achieved a 99.9% bactericidal in the agar plate.
# Aspergillus niger [2] = assay: MBC, agar plating of dilutions without growth; assay type: cell-based; settings: 99.9% bactericidal, read-out: Minimal bactericidal concentration (MBC)
# Text: as §1, §2, §3, §4
# Proteus vulgaris [3] = assay: MBC, agar plating of dilutions without growth; assay type: cell-based; settings: 99.9% bactericidal, read-out: Minimal bactericidal concentration (MBC)
# Text: as §1, §2, §3, §4
# Physalospora piricola [4] = assay: MBC, agar plating of dilutions without growth; assay type: cell-based; settings: 99.9% bactericidal, read-out: Minimal bactericidal concentration (MBC)
# Text: as §1, §2, §3, §4
# α-H-tococcus [5] = assay: MBC, agar plating of dilutions without growth; assay type: cell-based; settings: 99.9% bactericidal, read-out: Minimal bactericidal concentration (MBC)
# Text: as §1, §2, §3, §4
# S. aureus [6] = assay: MBC, agar plating of dilutions without growth; assay type: cell-based; settings: Staphylococcus aureus, 99.9% bactericidal, read-out: Minimal bactericidal concentration (MBC)
# Text: as §1, §2, §3, §4
# Canidia albicans [7] = assay: MBC, agar plating of dilutions without growth; assay type: cell-based; settings: 99.9% bactericidal, read-out: Minimal bactericidal concentration (MBC)
# Text: as §1, §2, §3, §4
# P. aeruginosa [8] = assay: MBC, agar plating of dilutions without growth; assay type: cell-based; settings: Pseudomonas aeruginosa, 99.9% bactericidal, read-out: Minimal bactericidal concentration (MBC)
# Text: as §1, §2, §3, §4
# E. coli [9] = assay: MBC, agar plating of dilutions without growth; assay type: cell-based; settings: Escherichia coli, 99.9% bactericidal, read-out: Minimal bactericidal concentration (MBC)
# Text: as §1, §2, §3, §4
# β-H-tococcus = assay: MIC, broth tube dilution; assay type: cell-based; settings: 12 h, 37℃, read-out: Minimal inhibitory concentration (MIC)
# Text: as §1, §2, §3
# Cytospora mandshurica [10] = assay: MIC, broth tube dilution; assay type: cell-based; settings: Cytospora, 72 h, 28 ℃, read-out: Minimal inhibitory concentration (MIC)
# Text: as §1, §2, §3
# Aspergillus niger [11] = assay: MIC, broth tube dilution; assay type: cell-based; settings: 72 h, 28 ℃, read-out: Minimal inhibitory concentration (MIC)
# Text: as §1, §2, §3
# Proteus vulgaris [12] = assay: MIC, broth tube dilution; assay type: cell-based; settings: 12 h, 37℃, read-out: Minimal inhibitory concentration (MIC)
# Text: as §1, §2, §3
# Physalospora piricola [13] = assay: MIC, broth tube dilution; assay type: cell-based; settings: 72 h, 28 ℃, read-out: Minimal inhibitory concentration (MIC)
# Text: as §1, §2, §3
# α-H-tococcus [14] = assay: MIC, broth tube dilution; assay type: cell-based; settings: 12 h, 37℃, read-out: Minimal inhibitory concentration (MIC)
# Text: as §1, §2, §3
# S. aureus [15] = assay: MIC, broth tube dilution; assay type: cell-based; settings: Staphylococcus aureus, 12 h, 37℃, read-out: Minimal inhibitory concentration (MIC)
# Text: as §1, §2, §3
# Canidia albicans [16] = assay: MIC, broth tube dilution; assay type: cell-based; settings: 72 h, 28 ℃, read-out: Minimal inhibitory concentration (MIC)
# Text: as §1, §2, §3
# P. aeruginosa [17] = assay: MIC, broth tube dilution; assay type: cell-based; settings: Pseudomonas aeruginosa, 12 h, 37℃, read-out: Minimal inhibitory concentration (MIC)
# Text: as §1, §2, §3
# E. coli [18] = assay: MIC, broth tube dilution; assay type: cell-based; settings: Escherichia coli, 12 h, 37℃, read-out: Minimal inhibitory concentration (MIC)
# Text: as §1, §2, §3
melting point [°C],SMILES,MBC (Cytospora mandshurica [1]) [µg/mL],MBC (Aspergillus niger [2]) [µg/mL],MBC (Proteus vulgaris [3]) [µg/mL],MBC (Physalospora piricola [4]) [µg/mL],MBC (α-H-tococcus [5]) [µg/mL],MBC (S. aureus [6]) [µg/mL],MBC (Canidia albicans [7]) [µg/mL],MBC (P. aeruginosa [8]) [µg/mL],MBC (E. coli [9]) [µg/mL],MIC (β-H-tococcus) [µg/mL],MIC (Cytospora mandshurica [10]) [µg/mL],MIC (Aspergillus niger [11]) [µg/mL],MIC (Proteus vulgaris [12]) [µg/mL],MIC (Physalospora piricola [13]) [µg/mL],MIC (α-H-tococcus [14]) [µg/mL],MIC (S. aureus [15]) [µg/mL],MIC (Canidia albicans [16]) [µg/mL],MIC (P. aeruginosa [17]) [µg/mL],MIC (E. coli [18]) [µg/mL]
,"[H]/N=C(\N/C(=N/[H])NCCCCCCNC(=N)NC(=N)Nc1ccc(Cl)cc1)Nc1ccc(Cl)cc1 [CA, chlorhexidine acetate, reference compound]",6.25,6.25,12.5,3.12,6.25,6.25,12.5,25,12.5,1.56,6.25,3.12,12.5,1.56,6.25,3.12,12.5,25,6.25
,"C[N+](CCO)(CCO)CCCCCCCCCCCCSc1nnc(-c2ccccc2)o1 [Compound 2, reference compound]",6.25,3.12,50,3.12,6.25,12.5,12.5,25,50,6.25,3.12,3.12,25,3.12,6.25,6.25,6.25,12.5,25
,C[N+](CCO)(CCO)CCCCCCSc1nnc(-c2ccc(F)cc2)o1 [Compound 5a],50,50,100,12.5,50,100,50,100,100,25,50,50,100,12.5,50,100,50,100,100
,C[N+](CCO)(CCO)CCCCCCCCCCSc1nnc(-c2ccc(F)cc2)o1 [Compound 5c],12.5,25,50,6.25,12.5,25,25,50,50,6.25,12.5,25,50,3.12,12.5,25,25,50,25
,C[N+](CCO)(CCO)CCCCCCCCCCCCSc1nnc(-c2ccc(F)cc2)o1 [Compound 5d],12.5,25,25,3.12,12.5,12.5,12.5,50,25,~6.25,12.5,25,~25,3.12,~12.5,~12.5,12.5,~50,~25
,C[N+](CCO)(CCO)CCCCCCSc1nnc(-c2ccc(C(F)(F)F)cc2)o1 [Compound 6a],25,25,100,12.5,50,50,50,100,50,25,12.5,25,100,6.25,50,50,50,100,50
102 to 103,C[N+](CCO)(CCO)CCCCCCCCCCSc1nnc(-c2ccc(C(F)(F)F)cc2)o1.[Br-] [Compound 6c],12.5,12.5,25,3.12,12.5,25,25,50,25,6.25,12.5,12.5,25,3.12,12.5,25,25,50,25
88 to 90,C[N+](CCO)(CCO)CCCCCCCCCCCCSc1nnc(-c2ccc(C(F)(F)F)cc2)o1.[Br-] [Compound 6d],6.25,6.25,25,1.56,6.25,12.5,12.5,50,25,3.12,6.25,6.25,25,1.56,6.25,6.25,12.5,50,25
,C[N+](CCO)(CCO)CCCCCCCCCCCCSc1nc2ccccc2s1 [Compound 13d],~6.25,6.25,25,3.12,12.5,6.25,6.25,25,25,~1.56,~1.56,~3.12,~25,~3.12,~12.5,~6.25,~6.25,~25,~25
